We go through 2 compounds from patent US8703770B2, “Pyridazine carboxamide orexin receptor antagonists” (Merck Sharp & Dohme Corp., priority 2008, dated 2014).

The assay has as its target OX2R (Homo sapiens (Human), UniProt O43614). In words: radioligand binding assay, membranes from CHO cells expressing OX2 receptor. The following applies: CHO cell membranes.

The structures appear in SMILES notation. pKi: −log10 of the molar value.

OX2R, sequence (O43614 whole entry): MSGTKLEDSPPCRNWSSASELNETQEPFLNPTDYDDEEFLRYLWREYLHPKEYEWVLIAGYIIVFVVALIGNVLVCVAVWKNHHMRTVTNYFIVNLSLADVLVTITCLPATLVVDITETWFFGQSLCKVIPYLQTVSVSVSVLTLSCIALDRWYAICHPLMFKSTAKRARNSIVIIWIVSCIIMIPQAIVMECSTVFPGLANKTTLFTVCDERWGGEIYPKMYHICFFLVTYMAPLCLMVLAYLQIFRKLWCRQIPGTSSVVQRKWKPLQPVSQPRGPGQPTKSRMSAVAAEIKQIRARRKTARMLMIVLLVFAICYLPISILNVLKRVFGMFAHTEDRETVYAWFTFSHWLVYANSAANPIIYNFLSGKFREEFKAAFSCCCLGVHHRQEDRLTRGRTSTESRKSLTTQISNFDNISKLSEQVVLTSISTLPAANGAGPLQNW

In the case of `COc1ccc(CNC(=O)c2cc(-c3cc(C)cc(C)c3)nnc2-c2cnn(C)c2)cc1OC` [Compound 1-5, N-(3,4-dimethoxybenzyl)-6-(3,5-dimethylphenyl)-3-(1-methyl-1H-pyrazol-4-yl)pyridazine-4-carboxamide], the pKi – broadly, −log10 of the Ki, conventionally taken in molar units – is 8.48.

Compound `COc1ccc(CNC(=O)c2cc(-c3cc(C)cc(Cl)c3)nnc2N2CCOCC2)cc1OC` [Compound 2-2, 6-(3-chloro-5-methylphenyl)-N-(3,4-dimethoxybenzyl)-3-morpholin-4-ylpyridazine-4-carboxamide] gave a pKi of 9.02.
